Measurements from patent publication US8022225B2, “Triazole derivative” (Taisho Pharmaceutical Co., Ltd, priority 2004, dated 2011).

The compounds below were run against T1, human Edg-1(S1P1) (Homo sapiens, UniProt P21453) (assay: Cell system binding test: inhibition of [3H]-S1P binding to Edg-1(S1P1) gene transferred HEK-293 cells). Conditions: 10 μM compound, [3H]-S1P 10 nM, read-out: Cell system binding test % inhibition (10 μM).
T1 construct: expressed in transfected cells; host or cells: HEK-293
T1 sequence (P21453 whole entry): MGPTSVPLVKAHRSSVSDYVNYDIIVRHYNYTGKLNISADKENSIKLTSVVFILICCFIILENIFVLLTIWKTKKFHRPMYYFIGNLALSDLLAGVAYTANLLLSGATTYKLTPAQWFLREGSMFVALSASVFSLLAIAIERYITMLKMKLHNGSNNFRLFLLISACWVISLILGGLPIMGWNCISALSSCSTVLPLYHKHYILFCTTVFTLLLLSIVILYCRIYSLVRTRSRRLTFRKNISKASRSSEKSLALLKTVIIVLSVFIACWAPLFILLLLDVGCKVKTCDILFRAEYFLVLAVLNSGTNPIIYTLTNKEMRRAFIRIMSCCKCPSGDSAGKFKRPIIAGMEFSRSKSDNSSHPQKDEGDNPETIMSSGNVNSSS
Procedure: Cells (1×10^5 cells/well) obtained as described above were seeded in poly-L-lysine-coated 96-well plates (Corning Incorporated), and then incubated in a 5% carbon dioxide gas incubator for 12 hours at 37° C. with the use of an MEM medium (Invitrogen Corporation) containing 100 U/mL of penicillin, 100 μg/mL of streptomycin, a 1% MEM nonessential amino acid solution, and 10% FCS. […] After the cells were washed twice with the buffer, they were solubilized with 100 μL of Opti Phase Supermix (produced by Perkin-Elmer), and measured for radioactivity by means of Micro Beta (produced by Perkin-Elmer).
Inhibition rate(%)=[1−(A−C)/(B−C)]×100
Compound CCn1c(SCc2ccc(C(C)(C)C)cc2)nnc1C(C)NS(=O)(=O)c1ccc(Cl)cc1 (stereo not shown) [Compound 89] has an inhibition at 10 µM of 89.3%.
C=CCSc1nnc([C@@H](C)NS(=O)(=O)c2ccc(Cl)cc2)n1C [Compound 92] was tested, and the inhibition at 10 µM was 88.3%.
Work on C=CCSc1nnc(C(CC)NS(=O)(=O)c2ccc(Cl)cc2)n1C (stereo not shown) [Compound 105] yielded an inhibition at 10 µM of 71.5%.
With CCCC(NS(=O)(=O)c1ccc(Cl)cc1)c1nnc(SCc2ccccc2)n1C (stereo not shown) [Compound 126] the inhibition at 10 µM was 77%.
Compound CCCC(NS(=O)(=O)c1ccc(Cl)cc1)c1nnc(SCc2ccc(C)cc2)n1C (stereo not shown) [Compound 127] has an inhibition at 10 µM of 63.6%.
C=CCSc1nnc([C@@H](Cc2ccccc2)NS(=O)(=O)c2ccc(Cl)cc2)n1CCCC [Compound 145] gave an inhibition at 10 µM of 46%.
For C=CCSc1nnc([C@@H](Cc2ccccc2)NS(=O)(=O)c2ccc(Cl)cc2)n1CC(C)C [Compound 147], the inhibition at 10 µM was 75.2%.
C=CCSc1nnc([C@@H](Cc2ccccc2)NS(=O)(=O)c2ccc(Cl)cc2)n1C(C)CC (stereo partly shown) [Compound 149] was tested, and the inhibition at 10 µM was 63.4%.
With C=CCSc1nnc([C@@H](Cc2ccccc2)NS(=O)(=O)c2ccc(Cl)cc2)n1CCOC [Compound 151] the inhibition at 10 µM was 41.6%.
C=CCSc1nnc([C@@H](Cc2ccccc2)NS(=O)(=O)c2ccc(Cl)cc2)n1CCN1CCOCC1 [Compound 153] gave an inhibition at 10 µM of 26.8%.
With C=CCSc1nnc([C@@H](Cc2ccccc2)NS(=O)(=O)c2ccc(Cl)cc2)n1C1CCCC1 [Compound 164] the inhibition at 10 µM was 40.4%.
In the case of CCn1c([C@@H](C)NS(=O)(=O)c2ccc(Cl)cc2)nnc1[S+](C)[O-] (stereo partly drawn) [Compound 180, 4-Chloro-N-{(1R)-1-[4-ethyl-5-(methylsulfinyl)-4H-1,2,4-triazol-3-yl]ethyl}benzenesulfonamide], the inhibition at 10 µM is reported as 48.9%.
Work on CCn1c(OC)nnc1[C@@H](C)NS(=O)(=O)c1ccccc1Cl [Compound 194] yielded an inhibition at 10 µM of 85.6%.
CCn1c(OC)nnc1[C@@H](C)NS(=O)(=O)c1c(Cl)cccc1Cl [Compound 219] was tested, and the inhibition at 10 µM was 95.9%.
In the case of CCn1c(OC)nnc1[C@@H](C)NS(=O)(=O)c1c(C)cc(C)cc1C [Compound 225], the inhibition at 10 µM is reported as 94%.
In the case of CCn1c(OC)nnc1[C@@H](C)NS(=O)(=O)c1ccc(S(C)(=O)=O)cc1 [Compound 228], the inhibition at 10 µM is reported as 93.9%.
CCn1c(OC)nnc1[C@@H](C)NS(=O)(=O)Cc1ccccc1[N+](=O)[O-] [Compound 234] gave an inhibition at 10 µM of 90.9%.
Work on CCCCCCCCS(=O)(=O)N[C@H](C)c1nnc(OC)n1CC [Compound 236] yielded an inhibition at 10 µM of 98.9%.
In the case of CCCS(=O)(=O)N[C@H](C)c1nnc(OC)n1CC [Compound 239], the inhibition at 10 µM is reported as 92.7%.
CCn1c(OC)nnc1[C@@H](C)NS(=O)(=O)Cc1ccccc1 [Compound 244] gave an inhibition at 10 µM of 92.3%.
Work on CCn1c(OC)nnc1[C@@H](C)NS(=O)(=O)c1c(C)nn(C)c1Cl [Compound 253] yielded an inhibition at 10 µM of 83.4%.
CCn1c(OC)nnc1[C@@H](C)NS(=O)(=O)c1c(C)noc1C [Compound 254] showed an inhibition at 10 µM of 84.6%.
Work on CCn1c(OC)nnc1[C@@H](C)NS(=O)(=O)c1ccc(C(=O)OC)o1 [Compound 256] yielded an inhibition at 10 µM of 95.6%.
CCn1c(OC)nnc1[C@@H](C)NS(=O)(=O)c1ccccc1C(=O)OC [Compound 259] was tested, and the inhibition at 10 µM was 86.8%.
Work on CCn1c(OC)nnc1[C@@H](C)NS(=O)(=O)c1ccc(C(C)(C)CC)cc1 [Compound 271] yielded an inhibition at 10 µM of 89.6%.
In the case of CCn1c(OC)nnc1[C@@H](C)NS(=O)(=O)c1ccccc1OC(F)(F)F [Compound 276], the inhibition at 10 µM is reported as 88.9%.
Compound CCn1c(OC)nnc1[C@@H](C)NS(=O)(=O)c1ccc(Oc2ccccc2)cc1 [Compound 278] has an inhibition at 10 µM of 70.9%.
In the case of CCn1c(OC)nnc1[C@@H](C)NS(=O)(=O)c1ccc(F)cc1F [Compound 279], the inhibition at 10 µM is reported as 101%.
For CCn1c(OC)nnc1[C@@H](C)NS(=O)(=O)c1ccccc1F [Compound 280], the inhibition at 10 µM was 91%.
For CCn1c(OC)nnc1[C@@H](C)NS(=O)(=O)c1ccccc1I [Compound 283], the inhibition at 10 µM was 73.9%.
For CCn1c(OC)nnc1[C@@H](C)NS(=O)(=O)Cc1ccc(Cl)cc1 [Compound 293], the inhibition at 10 µM was 31.8%.
Work on CCn1c(OC)nnc1[C@@H](C)NS(=O)(=O)Cc1ccc(F)cc1 [Compound 294] yielded an inhibition at 10 µM of 64.5%.
Compound CCn1c(OC)nnc1[C@@H](C)NS(=O)(=O)Cc1cccc(C(F)(F)F)c1 [Compound 295] has an inhibition at 10 µM of 66.1%.
Work on CCn1c(OC)nnc1[C@@H](C)NS(=O)(=O)CC(c1ccccc1)c1ccccc1 [Compound 297] yielded an inhibition at 10 µM of 23.8%.
CCn1c(OC)nnc1[C@@H](C)NS(=O)(=O)c1c(F)cccc1F [Compound 298] was tested, and the inhibition at 10 µM was 85.7%.
CCn1c(OC)nnc1[C@@H](C)NS(=O)(=O)c1cc(Cl)ccc1OC [Compound 300] gave an inhibition at 10 µM of 95%.
For CCn1c(OC)nnc1[C@@H](C)NS(=O)(=O)c1ccc(CCC(=O)OC)cc1 [Compound 301], the inhibition at 10 µM was 78.3%.
Work on CCn1c(OC)nnc1[C@@H](C)NS(=O)(=O)Cc1cccc([N+](=O)[O-])c1 [Compound 304] yielded an inhibition at 10 µM of 79.8%.
For CCn1c(OC)nnc1[C@@H](C)NS(=O)(=O)Cc1cccc(Cl)c1 [Compound 305], the inhibition at 10 µM was 86.5%.
CCn1c(OC)nnc1[C@@H](C)NS(=O)(=O)c1cc(Cl)ccc1F [Compound 316] gave an inhibition at 10 µM of 92.9%.
CCn1c(OC)nnc1[C@@H](C)NS(=O)(=O)CCCOc1ccc(OC)cc1 [Compound 318] gave an inhibition at 10 µM of 68.5%.
With CCn1c(OC)nnc1[C@@H](C)NS(=O)(=O)Cc1ccccn1 [Compound 323] the inhibition at 10 µM was 64.4%.
CCn1c(OC)nnc1[C@@H](C)NS(=O)(=O)c1cccc(Oc2ccccc2OC)c1 [Compound 324] gave an inhibition at 10 µM of 88.1%.
CCn1c(OC)nnc1[C@@H](C)NS(=O)(=O)Cc1cccnc1 [Compound 325] gave an inhibition at 10 µM of 36.5%.
Work on CCn1c(OC)nnc1[C@@H](C)NS(=O)(=O)Cc1ccncc1 [Compound 329] yielded an inhibition at 10 µM of 38.5%.
CCn1c(OC)nnc1[C@@H](C)NS(=O)(=O)CCN1C(=O)c2ccccc2C1=O [Compound 331] showed an inhibition at 10 µM of 23.9%.
In the case of CCn1c(OC)nnc1[C@@H](C)NS(=O)(=O)c1ccccc1OC [Compound 332], the inhibition at 10 µM is reported as 35.5%.
CCn1c(OC)nnc1[C@@H](C)NS(=O)(=O)CC1CCCCC1 [Compound 333] gave an inhibition at 10 µM of 92.8%.
CCCCCCCCCCS(=O)(=O)N[C@H](C)c1nnc(OC)n1CC [Compound 334] gave an inhibition at 10 µM of 54.7%.
CCn1c(OC)nnc1[C@@H](C)NS(=O)(=O)c1cnoc1C [Compound 336] showed an inhibition at 10 µM of 89.3%.
CCn1c(OC)nnc1[C@@H](C)NS(=O)(=O)c1sc(C)nc1C [Compound 339] was tested, and the inhibition at 10 µM was 92.1%.
For CCn1c(OC)nnc1[C@@H](C)NS(=O)(=O)c1cccc2nsnc12 [Compound 340], the inhibition at 10 µM was 77.5%.
CCn1c(OC)nnc1[C@@H](C)NS(=O)(=O)c1ccsc1 [Compound 342] was tested, and the inhibition at 10 µM was 88.4%.
With CCn1c(OC)nnc1[C@@H](C)NS(=O)(=O)c1ccc(-c2cnco2)s1 [Compound 345] the inhibition at 10 µM was 88.5%.
CCn1c(OC)nnc1[C@@H](C)NS(=O)(=O)c1ccc(-c2cnco2)cc1 [Compound 346] gave an inhibition at 10 µM of 38.5%.
In the case of CCCCNC(=O)Nc1ccc(S(=O)(=O)N[C@H](C)c2nnc(OC)n2CC)cc1 [Compound 353], the inhibition at 10 µM is reported as 23.3%.
In the case of CCn1c(OC)nnc1[C@@H](C)NS(=O)(=O)c1cccc(C(=O)c2ccncc2)c1 [Compound 357], the inhibition at 10 µM is reported as 85.6%.
For CCn1c(OC)nnc1[C@@H](C)NS(=O)(=O)c1cccc(C(=O)c2ccccn2)c1 [Compound 358], the inhibition at 10 µM was 79.6%.
